Where two headings read alike, the source gives them in different places.
How the values were obtained:
[1] = Particle size (D90) during manufacturing process; assay type: physicochemical
[2] = Loss on drying (weight loss upon heating); assay type: physicochemical; details: solid held at 40° C. 24 hours, then 125° C. oven one hour
Experimental: To assess the form of ciprofloxacin samples described in the present disclosure, a comparison experiment is conducted to evaluate the sample's loss of weight upon heating. […] The conditions and results of the experiment are summarized below: Experimental Setup—Loss on Drying: • If suspension: Pipette Cipro suspension onto filter on vacuum filter flask • Transfer filter/dry powder to 40° C. oven, hold 24 hours • Transfer solid to pre-weighed aluminum pan and weigh solid • Transfer pan to 125° C. oven, hold one hour • Weigh again and determine weight loss due to 125° C.

Streptococcus pneumoniae = details: cited from earlier work
Haemophilus influenzae = details: cited from earlier work
rats = details: oral doses up to 100 mg/kg/day; cited from earlier work
Moraxella catarrhalis = details: cited from earlier work
Pseudomonas aeruginosa = details: cited from earlier work
Staphylococcus aureus = details: cited from earlier work

Q: What does the source list for O=C(O)c1cn(C2CC2)c2cc(N3CCNCC3)c(F)cc2c1=O [Sample 2]?
A: particle size D90 [1]: around 60 μm; Weight Loss on Drying [2]: 11.1%

Q: For O=C(O)c1cn(C2CC2)c2cc(N3CCNCC3)c(F)cc2c1=O [Sample 1], which “particle size D90” value ([1]; listed as Ciprofloxacin free base anhydrous API powder) is on record?
A: under 15 μm

Q: What about the “Weight Loss on Drying” value [2] of the same compound?
A: 0.1%

Q: For O=C(O)c1cn(C2CC2)c2cc(N3CCNCC3)c(F)cc2c1=O [Ciprofloxacin, 1-cyclopropyl-6-fluoro-1,4-dihydro-4-oxo-7-(1-piperazinyl)-3-quinolinecarboxylic acid], which “antimicrobial activity against isolates” value (Streptococcus pneumoniae) is on record?
A: active against most isolates

Q: And the “antimicrobial activity against isolates” value (Haemophilus influenzae)?
A: active against most isolates

Q: What about the impairment of fertility (rats) of the same compound?
A: no evidence of impairment

Q: What about the “antimicrobial activity against isolates” value (Moraxella catarrhalis) of the same compound?
A: active against most isolates

Q: And the “antimicrobial activity against isolates” value (Pseudomonas aeruginosa)?
A: active against most isolates

Q: What about the “antimicrobial activity against isolates” value (Staphylococcus aureus) of the same compound?
A: active against most isolates

Source: patent publication US11246863B2 (ALK-ABELLÓ, INC., priority 2015, dated 2022)
